Target: Beta-secretase 1 (Homo sapiens, UniProt P56817)
Test: Binding affinity for human brain memapsin 2 beta-Secretase (BACE)

Chain of Beta-secretase 1 (P56817 whole entry): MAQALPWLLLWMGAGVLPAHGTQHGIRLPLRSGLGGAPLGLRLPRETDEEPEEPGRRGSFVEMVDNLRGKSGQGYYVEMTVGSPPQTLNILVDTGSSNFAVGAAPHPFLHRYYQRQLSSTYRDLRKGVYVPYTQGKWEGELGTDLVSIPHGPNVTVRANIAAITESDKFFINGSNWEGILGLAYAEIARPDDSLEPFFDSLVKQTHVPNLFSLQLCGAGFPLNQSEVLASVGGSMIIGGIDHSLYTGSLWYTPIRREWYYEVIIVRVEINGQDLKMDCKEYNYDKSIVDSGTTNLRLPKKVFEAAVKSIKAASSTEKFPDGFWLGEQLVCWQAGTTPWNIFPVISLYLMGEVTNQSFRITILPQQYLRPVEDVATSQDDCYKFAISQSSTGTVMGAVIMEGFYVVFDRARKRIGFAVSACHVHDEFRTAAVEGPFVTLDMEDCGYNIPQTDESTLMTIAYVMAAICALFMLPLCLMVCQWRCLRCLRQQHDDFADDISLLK

Structure (SMILES) | Ki
CSCCC(NC(=O)[C@@H](NC(=O)OC(C)(C)C)C(C)C)C(=O)N[C@@H](CC(C)C)C(O)CC(C)C(=O)NC(C(=O)NCc1ccccc1)C(C)C (some centres undefined) | 2.5 nM
CC(C)C[C@H](NC(=O)C(CS(C)(=O)=O)NC(=O)[C@@H](NC(=O)OC(C)(C)C)C(C)C)C(O)CC(C)C(=O)NC(C(=O)NCc1ccccc1)C(C)C (some centres undefined) | 9.4 nM
CC(C)C[C@H](NC(=O)[C@H](CS(C)(=O)=O)NC(=O)OC(C)(C)C)C(O)CC(C)C(=O)NC(C(=O)NCc1ccccc1)C(C)C (some centres undefined) | 1130 nM
CC(C)C[C@H](NC(=O)C(CC(N)=O)NC(=O)[C@@H](NC(=O)OC(C)(C)C)C(C)C)C(O)CC(C)C(=O)NC(C(=O)NCc1ccccc1)C(C)C (some centres undefined) | 5.9 nM
CC(C)C[C@H](NC(=O)[C@H](CC(N)=O)NC(=O)OC(C)(C)C)C(O)CC(C)C(=O)NC(C(=O)NCc1ccccc1)C(C)C (some centres undefined) | 3130 nM
CSCC(NC(=O)[C@@H](NC(=O)OC(C)(C)C)C(C)C)C(=O)N[C@@H](CC(C)C)C(O)CC(C)C(=O)NC(C(=O)NCc1ccccc1)C(C)C (some centres undefined) | 50.1 nM

Further lines, results first:

Ki | Structure (SMILES)
22400 nM | CC(C)C[C@H](NC(=O)[C@H](CC(N)=O)NC(=O)OC(C)(C)C)C(O)CC(C)C(=O)NC(C)C(=O)NCc1ccccc1 (some centres undefined)
61.4 nM | CC(C)C[C@H](NC(=O)C(CC(N)=O)NC(=O)[C@@H](NC(=O)OC(C)(C)C)C(C)C)C(O)CC(C)C(=O)NC(C)C(=O)NCc1ccccc1 (some centres undefined)
5810 nM | CSCCC(NC(=O)OC(C)(C)C)C(=O)N[C@@H](CC(C)C)C(O)CC(C)C(=O)NC(C(=O)NCc1ccccc1)C(C)C (some centres undefined)
